Laboratory results: ChEMBL document CHEMBL1131562, “Synthesis of L-enantiomers of 4'-thioarabinofuranosyl pyrimidine nucleosides” (1998)
≈ marks a conversion by molar mass, not a printed value. Calls of active or inactive are those of the source. The rule behind the calls is not given here.

Experiments:
[1] = system: Human alphaherpesvirus 1; assay: Antiviral activity against herpes simplex virus type-1 at concentration up to 100 ug/mL; NA means not active; assay type: functional, organism-based
[2] = system: Human alphaherpesvirus 2; assay: Antiviral activity against herpes simplex virus type-2 at concentration up to 100 ug/mL; NA means not active; assay type: functional, organism-based
[3] = organism: Homo sapiens; assay: Cytotoxicity against human T-cell leukemia, CCRF-HSB-2, at concentration up to 100 ug/mL; NA means not active; assay type: functional
[4] = system: Human alphaherpesvirus 1; assay: Effective dose required for antiviral activity against herpes simplex virus type-1; assay type: functional; settings: read-out: ED50 (the source's name)
[5] = system: Human alphaherpesvirus 2; assay: Effective dose required for antiviral activity against herpes simplex virus type-2; assay type: functional; settings: read-out: ED50 (the source's name)

SMILES	Activity [1]	Activity [2]	Activity [3]	EC50 [4]	EC50 [5]
Cc1cn([C@H]2S[C@@H](CO)[C@H](O)[C@H]2O)c(=O)[nH]c1=O	inactive	inactive	inactive		
Nc1ccn([C@H]2S[C@@H](CO)[C@H](O)[C@H]2O)c(=O)n1	inactive	inactive	inactive		
Nc1ccn([C@@H]2S[C@@H](CO)[C@H](O)[C@H]2O)c(=O)n1			inactive	10 µg/mL (≈ 38.6 µM)	10 µg/mL (≈ 38.6 µM)
Cc1cn([C@@H]2S[C@@H](CO)[C@H](O)[C@H]2O)c(=O)[nH]c1=O	inactive	inactive	inactive		
